The compounds below were run against T1, wildtype HIV-1 protease (Human immunodeficiency virus type 1 group M subtype B, UniProt P04585) (assay: Assay for inhibition of microbial expressed HIV protease (Pepcleav)). Conditions: wild type HIV-1 protease expressed in E. coli, peptide substrate, pH 5.5; mean of at least two independent experiments; read-out: Pepcleav.
T1 construct: the wildtype HIV-1 protease (which was expressed in Escherichia coli); made in house; host or cells: Escherichia coli
Assay type: biochemical
How it was run: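 E. coli-expressed wild-type HIV-1 protease (20 pM) preincubated 30 min at room temperature with inhibitor in pH 5.5 sodium acetate/NaCl/BSA buffer, then 400 μM Val-Ser-Gln-Asn-(βnaphthyl)Ala-Pro-Ile-Val added for 1 h at 30 °C. Quenched with formic acid; product quantified by LC-MS/MS peak area, indinavir internal standard.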

First: N[C@H](C(=O)Nc1cncc(F)c1CC[C@@H]1CN[C@H](COC(=O)NCC2CCS(=O)(=O)C2)CO1)C(c1ccc(F)cc1)c1ccc(F)cc1 (stereo partly drawn) [Example 209, N-[4-(2-{(2R,5S)-5-[({[(1,1-dioxidotetrahydrothiophen-3-yl)methyl]carbamoyl}oxy)methyl]morpholin-2-yl}ethyl)-5-fluoropyridin-3-yl]-4-fluoro-β-(4-fluorophenyl)-L-phenylalaninamide]
Second: CN1CCC(NC(=O)OC[C@@H]2CO[C@H](CCc3c(F)cncc3NC(=O)[C@@H](N)C(c3ccc(F)cc3)c3ccc(F)cc3)CN2)C1 (stereo partly drawn) [Example 229, 4-fluoro-N-(5-fluoro-4-{2-[(2R,5S)-5-({[(1-methylpyrrolidin-3-yl)carbamoyl]oxy}methyl)morpholin-2-yl]ethyl}pyridin-3-yl)-β-(4-fluorophenyl)-L-phenylalaninamide]
The IC50 of the first is 12-fold lower: 16 nM for the first, 190 nM for the second. The first is the more potent here.

Compared with `C[C@H](NC(=O)OC[C@@H]1CO[C@H](COc2c(F)cccc2NC(=O)[C@@H](N)C(c2ccc(F)cc2)c2ccc(F)cc2)CN1)c1ccc(F)cc1` [Example 210, 4-fluoro-N-[3-fluoro-2-({(2S,5S)-5-[({[(1S)-1-(4-fluorophenyl)ethyl]carbamoyl}oxy)methyl]morpholin-2-yl}methoxy)phenyl]-β-(4-fluorophenyl)-L-phenylalaninamide], `Cc1cccc(NC(=O)[C@@H](N)C(c2ccc(F)cc2)c2ccc(F)cc2)c1CC[C@@H]1CN[C@H](COC(=O)NCC(F)(F)F)CO1` [Example 226, 4-fluoro-β-(4-fluorophenyl)-N-(3-methyl-2-{2-[(2R,5S)-5-({[(2,2,2-trifluoro-ethyl)carbamoyl]oxy}methyl)morpholin-2-yl]ethyl}phenyl)-L-phenylalaninamide] is 28-fold higher in IC50: 13 nM for the first, 360 nM for the second.

First: N[C@H](C(=O)Nc1cncc(F)c1CC[C@@H]1CN[C@H](COC(=O)N[C@@H]2COC[C@@H]2F)CO1)C(c1ccc(F)cc1)c1ccc(F)cc1 [Example 211]
Second: CC(C)(CO)NC(=O)OC[C@@H]1CO[C@H](CCc2c(F)cncc2NC(=O)[C@@H](N)C(c2ccc(F)cc2)c2ccc(F)cc2)CN1 [Example 218, 4-fluoro-N-(5-fluoro-4-{2-[(2R,5S)-5-({[(2-hydroxy-1,1-dimethylethyl)carbamoyl]oxy}methyl)morpholin-2-yl]ethyl}pyridin-3-yl)-β-(4-fluorophenyl)-L-phenylalaninamide]
The IC50 of the first is 5.7-fold higher: 12 nM for the first, 2.1 nM for the second. The second is the more potent here.

Going from `N[C@@H](C(=O)Nc1cncc(F)c1CC[C@@H]1CN[C@H](CO)CO1)[C@@H](c1ccccc1)c1ccnc2ccccc12` [Example 225, (βS)-N-(5-fluoro-4-{2-[(2R,5R)-5-(hydroxymethyl)morpholin-2-yl]ethyl}pyridin-3-yl)-β-quinolin-4-yl-D-phenylalaninamide] to `CS(=O)(=O)CC[C@@H]1CO[C@H](COc2c(F)cccc2NC(=O)[C@@H](N)C(c2ccccc2)c2ccccc2)CN1` [Example 232, N-[3-fluoro-2-({(2S,5R)-5-[2-(methylsulfonyl)ethyl]morpholin-2-yl}methoxy)phenyl]-β-phenyl-L-phenylalaninamide], the IC50 falls from 2700 nM to 150 nM (18-fold).

First: N[C@H](C(=O)Nc1cccc(F)c1CC[C@@H]1CN[C@H](COC(=O)NCC(F)(F)F)CO1)[C@H](c1ccccc1)c1ccc(Oc2ccccc2)cc1 [Example 227, (βR)-N-(3-fluoro-2-{2-[(2R,5S)-5-( {[(2,2,2-trifluoroethyl)carbamoyl]oxy}methyl)morpholin-2-yl]ethyl}phenyl)-O,β-diphenyl-L-tyrosinamide]
Second: N[C@H](C(=O)Nc1cccc(F)c1CC[C@@H]1CN[C@H](COC(=O)NCC(F)(F)F)CO1)[C@H](c1ccc(F)cc1)c1ccc(Oc2ccccc2)cc1 [Example 230, (βS)-β-(4-fluorophenyl)-N-(3-fluoro-2-{2-[(2R,5S)-5-({[(2,2,2-trifluoroethyl)carbamoyl]oxy}methyl)morpholin-2-yl]ethyl}phenyl)-O-phenyl-L-tyrosinamide]
The IC50 of the first is 1.9-fold higher: 340 nM for the first, 180 nM for the second. The second is the more potent here.

Going from `CCC[C@H](c1ccccc1)[C@H](N)C(=O)Nc1cccc(F)c1CC[C@@H]1CN[C@H](COC(=O)NCC(F)(F)F)CO1` [Example 228, (βR)-N-(3-fluoro-2-{2-[(2R,5S)-5-({[(2,2,2-trifluoroethyl)carbamoyl]oxy}methyl)morpholin-2-yl]ethyl}phenyl)-β-propyl-L-phenylalaninamide] to `N[C@H](C(=O)Nc1cccc(C(F)(F)F)c1CC[C@@H]1CN[C@H](COC(=O)NCC(F)(F)F)CO1)C(c1ccccc1)c1ccccc1` [Example 234, β-phenyl-N-[2-{2-[(2R,5S)-5-({[(2,2,2-trifluoroethyl)carbamoyl]oxy}methyl)morpholin-2-yl]ethyl}-3-(trifluoromethyl)phenyl]-L-phenylalaninamide], the IC50 falls from 190 nM to 110 nM (1.7-fold).

`N[C@H](C(=O)Nc1cccc(F)c1CC[C@@H]1CN[C@H](COC(=O)NCC(F)(F)F)CO1)[C@H](c1ccc(F)cc1)c1ccc(OC(F)(F)F)cc1` [Example 231, (βS)-β-(4-fluorophenyl)-N-(3-fluoro-2-{2-[(2R,5S)-5-({[(2,2,2-trifluoroethyl)carbamoyl]oxy}methyl)morpholin-2-yl]ethyl}phenyl)-O-(trifluoromethyl)-L-tyrosinamide] and `COC(=O)N[C@H](C(=O)Nc1cccc(F)c1CC[C@@H]1CN[C@H](COC(=O)NCC(F)(F)F)CO1)[C@H](c1ccc(F)cc1)c1cccc(OC)c1` [Example 306, (βR)-4-fluoro-N-(3-fluoro-2-{2-[(2R, 5S)-5-({[(2,2,2-trifluoroethyl)carbamoyl]oxy}methyl)morpholin-2-yl]ethyl}phenyl)-Nα-(methoxy-carbonyl)-β-(3-methoxyphenyl)-L-phenylalaninamide] are within 1.5-fold of each other in IC50: 150 nM for the first, 170 nM for the second.

`N[C@H](C(=O)Nc1cncc(F)c1CC[C@@H]1CN[C@H](COC(=O)NCCN2CCCC2)CO1)C(c1ccc(F)cc1)c1ccc(F)cc1` [Example 233, 4-fluoro-β-(4-fluorophenyl)-N-(5-fluoro-4-{2-[(2R,5S)-5-({[(2-pyrrolidin-1-ylethyl)carbamoyl]oxy}methyl)morpholin-2-yl]ethyl}pyridin-3-yl)-L-phenylalaninamide] gave an IC50 of 110 nM.

These compounds were tested on HIV-1 (H9IIIB strain) (assay: Antiviral acute infection assay in cell culture (Spread)). Conditions: Human immunodeficiency virus 1, T-lymphoid, HIV-1 H9IIIB infection of MT-4 human T-lymphoid cells in 10% FBS; mean of at least two independent experiments.
Assay type: cell-based
Text: Antiviral Assays in Cell Culture (“Spread”)
Acute Infection Assay (“Spread”) data were generated using HIV-1 (H9IIIB strain) infection of MT-4 human T-lymphoid cells in 10% FBS, and according to the methods disclosed by J. P. Vacca et al, “L-735,524: An orally bioavailable human immunodeficiency virus type 1 protease inhibitor,” Proc. Natl. Acad. Sci. USA, Vol. 91, pp. 4096-4100 (April 1994).

Going from `O=C(CC(c1ccc(F)cc1)c1ccc(F)cc1)Nc1cncc(F)c1CC[C@@H]1CN[C@H](CNC(=O)OCC(F)(F)F)CO1` [Example 85, 2,2,2-trifluoroethyl ({(3R,6R)-6-[2-(3-{[3,3-bis(4-fluoro-phenyl)propanoyl]amino}-5-fluoropyridin-4-yl)ethyl]morpholin-3-yl}methyl)carbamate] to `O=C(CC(c1ccc(F)cc1)c1ccc(F)cc1)Nc1cccc(F)c1CC[C@@H]1CN[C@H](CNC(=O)OCC(F)(F)F)CO1` [Example 87, 2,2,2-trifluoroethyl ({(3R,6R)-6-[2-(2-{[3,3-bis(4-fluoro-phenyl)propanoyl]amino}-6-fluorophenyl)ethyl]morpholin-3-yl}methyl) carbamate], the EC50 rises from 87 nM to 2200 nM (25-fold). The first is the more potent here.

Work on `N[C@H](C(=O)Nc1cccc(F)c1CC[C@@H]1CN[C@H](CNC(=O)OCC(F)(F)F)CO1)C(c1ccc(F)cc1)c1ccc(F)cc1` [Example 88, 4-fluoro-β-(4-fluorophenyl)-N-(3-fluoro-2-{2-[(2R,5R)-5-({[(2,2,2-trifluoro-ethoxy)carbonyl]amino}methyl)morpholin-2-yl]ethyl}phenyl)-L-phenylalaninamide] yielded an EC50 of 450 nM.
